{
  "source": "patent US10426818B2",
  "about": "“Method and pharmaceutical composition for use in the treatment of diabetes” (INSERM (INSITUT NATIONAL DE LA SANTE ET DE LA RECHERCHE …, priority 2015, dated 2019)",
  "tested_on": "overweighed healthy volunteers",
  "conditions": "for ΔGIR (difference in Glucose Infusion Rate): single 2 hours continuous intravenous infusion, 8 volunteers",
  "description": "This trial is a Phase 1, exploratory, monocentric, placebo-controlled, double blinded, crossover study.\nTwo groups of 8 male, overweighed (BMI 25-30 kg/m^2) healthy volunteers were included in this study.\nThe first 8 volunteers were included in the low dose group.\nThe next 8 volunteers were included in the high dose group.\nEuglycemic Hyperinsulinemic Clamp Technique • Insulin (Actrapid®, NovoNordisk, Copenhagen, Denmark) was perfused for 4 hours at a constant supra-physiological rate (1 mU·Kg-1·min-1) resulting in the complete inhibition of hepatic glucose production. • Blood glucose level was measured every 5 min and maintained for 4 hours at a constant physiological value (5 mmol/l) adapting the rate of infusion of a 20% glucose solution.\nThe primary endpoint (deltaGIR) was the difference between the GIR measured during the steady state ending the “investigational product” perfusion phase (GIRperfusion) and the GIR measured during the steady state ending the “basal” phase (GIRbasal). Delta GIR=GIRperfusion−GIRbasal",
  "note": "Like-named read-outs stand apart in the source and are kept apart here.",
  "data": [
    {"substance": "(pyr1)-Apelin-13", "values": [
      {"measurement": "change in ΔGIR versus placebo (in words)", "setting": "9 nmol/kg intravenous, p=0.06", "result": "non-significant increase"},
      {"measurement": "ΔGIR (difference in Glucose Infusion Rate)", "setting": "9 nmol/kg, p=0.06 versus placebo", "result": "+2.21±0.54 mg/kg/min"},
      {"measurement": "insulin sensitivity versus placebo (in words)", "setting": "30 nmol/kg intravenous, p=0.03", "result": "significant improvement"},
      {"measurement": "ΔGIR (difference in Glucose Infusion Rate)", "setting": "30 nmol/kg, p=0.03 versus placebo", "result": "+1.72±0.47 mg/kg/min"}
    ]}
  ]
}
